{"source": "paper PMC4076210", "about": "“Discovery of Novel AKT Inhibitors with Enhanced Anti-Tumor Effects in Combination with the MEK Inhibitor” (PLoS ONE, 2014)", "key": {"EphB2(h)": {"target": "T1, EphB2(h) (Homo sapiens, UniProt P29323)", "T1 construct": "purchased Millipore KinaseProfiler", "T1 sequence (P29323 19-1055)": "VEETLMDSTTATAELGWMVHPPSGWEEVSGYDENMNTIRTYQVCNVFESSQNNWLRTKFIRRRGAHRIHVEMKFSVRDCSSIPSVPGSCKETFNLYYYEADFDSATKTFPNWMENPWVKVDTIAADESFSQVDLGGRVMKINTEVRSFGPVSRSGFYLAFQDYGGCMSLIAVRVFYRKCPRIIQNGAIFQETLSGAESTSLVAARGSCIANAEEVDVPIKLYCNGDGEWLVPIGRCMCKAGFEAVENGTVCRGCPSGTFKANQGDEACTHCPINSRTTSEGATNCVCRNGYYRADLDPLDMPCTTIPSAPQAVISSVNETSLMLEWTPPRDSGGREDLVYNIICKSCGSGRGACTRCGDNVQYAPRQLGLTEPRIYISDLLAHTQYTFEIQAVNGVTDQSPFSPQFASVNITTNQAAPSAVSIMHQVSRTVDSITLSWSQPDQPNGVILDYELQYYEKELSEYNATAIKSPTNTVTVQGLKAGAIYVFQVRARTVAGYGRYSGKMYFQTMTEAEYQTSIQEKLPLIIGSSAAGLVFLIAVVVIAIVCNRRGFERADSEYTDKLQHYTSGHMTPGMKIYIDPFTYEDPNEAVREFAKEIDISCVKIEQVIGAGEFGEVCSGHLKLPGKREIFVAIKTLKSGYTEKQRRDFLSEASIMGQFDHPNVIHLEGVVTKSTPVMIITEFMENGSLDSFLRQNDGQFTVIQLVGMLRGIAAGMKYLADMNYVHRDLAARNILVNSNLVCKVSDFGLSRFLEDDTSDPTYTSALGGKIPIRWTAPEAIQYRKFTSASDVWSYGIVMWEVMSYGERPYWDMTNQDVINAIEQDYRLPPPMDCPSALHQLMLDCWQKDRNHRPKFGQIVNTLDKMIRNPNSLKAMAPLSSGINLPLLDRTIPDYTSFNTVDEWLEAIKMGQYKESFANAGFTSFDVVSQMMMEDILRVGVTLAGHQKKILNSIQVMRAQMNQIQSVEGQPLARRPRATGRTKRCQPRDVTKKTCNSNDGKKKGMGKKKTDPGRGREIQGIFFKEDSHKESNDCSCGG", "experiment": "Kinase panel", "type": "biochemical"}, "CHK1(h)": {"target": "T2, CHK1(h) (Homo sapiens, UniProt O14757)", "T2 construct": "purchased Millipore KinaseProfiler", "T2 sequence (O14757 1-476)": "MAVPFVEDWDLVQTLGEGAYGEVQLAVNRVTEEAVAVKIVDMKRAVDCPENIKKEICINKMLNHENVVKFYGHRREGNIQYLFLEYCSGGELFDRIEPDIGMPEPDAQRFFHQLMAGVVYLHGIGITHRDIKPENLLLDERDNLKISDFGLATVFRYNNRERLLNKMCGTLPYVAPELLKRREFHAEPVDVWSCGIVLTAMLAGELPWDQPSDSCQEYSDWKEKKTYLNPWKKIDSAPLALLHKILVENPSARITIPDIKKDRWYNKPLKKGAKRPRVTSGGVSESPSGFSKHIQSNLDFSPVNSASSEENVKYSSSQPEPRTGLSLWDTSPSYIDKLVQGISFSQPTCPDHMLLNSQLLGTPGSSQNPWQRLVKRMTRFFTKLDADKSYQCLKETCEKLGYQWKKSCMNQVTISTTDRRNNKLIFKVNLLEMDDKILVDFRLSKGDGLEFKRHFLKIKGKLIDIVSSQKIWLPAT", "experiment": "Kinase panel", "type": "biochemical"}, "PKCη": {"target": "PKCη (Homo sapiens, UniProt P24723)", "sequence (P24723 whole entry)": "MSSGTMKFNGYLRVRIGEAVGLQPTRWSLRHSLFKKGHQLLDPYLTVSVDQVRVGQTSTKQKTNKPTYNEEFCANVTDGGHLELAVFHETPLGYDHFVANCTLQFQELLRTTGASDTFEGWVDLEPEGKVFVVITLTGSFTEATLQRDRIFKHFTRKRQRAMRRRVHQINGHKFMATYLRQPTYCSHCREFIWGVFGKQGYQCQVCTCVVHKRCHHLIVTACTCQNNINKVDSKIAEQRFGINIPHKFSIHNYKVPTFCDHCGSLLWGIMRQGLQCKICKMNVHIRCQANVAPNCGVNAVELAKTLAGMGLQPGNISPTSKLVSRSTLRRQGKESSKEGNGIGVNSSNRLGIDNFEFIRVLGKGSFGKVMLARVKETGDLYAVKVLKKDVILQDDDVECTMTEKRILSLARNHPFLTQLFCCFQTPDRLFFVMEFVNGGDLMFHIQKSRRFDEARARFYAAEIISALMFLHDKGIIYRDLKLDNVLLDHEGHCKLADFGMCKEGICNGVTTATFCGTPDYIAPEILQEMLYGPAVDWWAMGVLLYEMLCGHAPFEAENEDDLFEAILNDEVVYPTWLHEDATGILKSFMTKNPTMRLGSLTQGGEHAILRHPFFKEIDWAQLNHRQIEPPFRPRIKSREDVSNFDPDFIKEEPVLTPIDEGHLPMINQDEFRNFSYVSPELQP", "experiment": "Kinase IC50 assay", "type": "biochemical"}, "PAK6(h)": {"target": "T3, PAK6(h) (Homo sapiens, UniProt Q9NQU5)", "T3 construct": "purchased Millipore KinaseProfiler", "experiment": "Kinase panel", "type": "biochemical"}, "Abl (M351T)(h)": {"target": "T4, Abl (M351T)(h) (Homo sapiens, UniProt P00519, M351T)", "T4 construct": "purchased Millipore KinaseProfiler", "experiment": "Kinase panel", "type": "biochemical"}, "[1]": {"test_system": "AKT substrate phosphorylation in BT474", "experiment": "Western analysis of AKT signaling", "type": "cell-based, human", "conditions": "BT474, 1 h", "experimental": "(§1) Cells treated with DMSO or compounds for different duration were lysed using RIPA buffer (Teknova) containing protease and phosphatase inhibitors (Sigma Aldrich). Equal amounts of protein were resolved in 4–12% SDS-PAGE gels (Invitrogen), transferred onto 0.45 µm PVDF membrane (Invitrogen), and incubated with primary antibodies (1∶1000 dilution) overnight. Antibodies for AKT, phospho-AKT (Ser473 and Thr308), phospho-FOXO (Thr24/32), phospho-MEK1/2 (Ser217/221) were purchased from Cell Signaling Technologies. Phospho-GSK3β (Ser9) antibody was from R&D Systems. PRAS40 and phospho-PRAS40 (Thr246) antibodies were obtained from Millipore. Phospho-ERK1/2 (Tyr204), ERK1/2, and phospho-Caspase 9 (Ser196) antibodies were purchased from Santa Cruz Biotechnologies. Tubulin antibodies were purchased from Sigma Aldrich. Following incubation with primary antibody, blots were washed and incubated with IRDye-680 goat-anti-mouse or IRDye-800CW goat-anti-rabbit antibodies (1; 10,000 dilution; LI-COR) for 1 h. Following thorough washing, blots were analyzed using an infrared imaging system (LI-COR)."}, "[2]": {"test_system": "AKT substrate phosphorylation in LNCaP", "experiment": "Western analysis of AKT signaling", "type": "cell-based, human", "conditions": "1 h", "experimental": "as §1"}, "IR(h)": {"target": "T5, IR(h) (Homo sapiens, UniProt P06213)", "T5 construct": "purchased Millipore KinaseProfiler", "T5 sequence (P06213 28-1382)": "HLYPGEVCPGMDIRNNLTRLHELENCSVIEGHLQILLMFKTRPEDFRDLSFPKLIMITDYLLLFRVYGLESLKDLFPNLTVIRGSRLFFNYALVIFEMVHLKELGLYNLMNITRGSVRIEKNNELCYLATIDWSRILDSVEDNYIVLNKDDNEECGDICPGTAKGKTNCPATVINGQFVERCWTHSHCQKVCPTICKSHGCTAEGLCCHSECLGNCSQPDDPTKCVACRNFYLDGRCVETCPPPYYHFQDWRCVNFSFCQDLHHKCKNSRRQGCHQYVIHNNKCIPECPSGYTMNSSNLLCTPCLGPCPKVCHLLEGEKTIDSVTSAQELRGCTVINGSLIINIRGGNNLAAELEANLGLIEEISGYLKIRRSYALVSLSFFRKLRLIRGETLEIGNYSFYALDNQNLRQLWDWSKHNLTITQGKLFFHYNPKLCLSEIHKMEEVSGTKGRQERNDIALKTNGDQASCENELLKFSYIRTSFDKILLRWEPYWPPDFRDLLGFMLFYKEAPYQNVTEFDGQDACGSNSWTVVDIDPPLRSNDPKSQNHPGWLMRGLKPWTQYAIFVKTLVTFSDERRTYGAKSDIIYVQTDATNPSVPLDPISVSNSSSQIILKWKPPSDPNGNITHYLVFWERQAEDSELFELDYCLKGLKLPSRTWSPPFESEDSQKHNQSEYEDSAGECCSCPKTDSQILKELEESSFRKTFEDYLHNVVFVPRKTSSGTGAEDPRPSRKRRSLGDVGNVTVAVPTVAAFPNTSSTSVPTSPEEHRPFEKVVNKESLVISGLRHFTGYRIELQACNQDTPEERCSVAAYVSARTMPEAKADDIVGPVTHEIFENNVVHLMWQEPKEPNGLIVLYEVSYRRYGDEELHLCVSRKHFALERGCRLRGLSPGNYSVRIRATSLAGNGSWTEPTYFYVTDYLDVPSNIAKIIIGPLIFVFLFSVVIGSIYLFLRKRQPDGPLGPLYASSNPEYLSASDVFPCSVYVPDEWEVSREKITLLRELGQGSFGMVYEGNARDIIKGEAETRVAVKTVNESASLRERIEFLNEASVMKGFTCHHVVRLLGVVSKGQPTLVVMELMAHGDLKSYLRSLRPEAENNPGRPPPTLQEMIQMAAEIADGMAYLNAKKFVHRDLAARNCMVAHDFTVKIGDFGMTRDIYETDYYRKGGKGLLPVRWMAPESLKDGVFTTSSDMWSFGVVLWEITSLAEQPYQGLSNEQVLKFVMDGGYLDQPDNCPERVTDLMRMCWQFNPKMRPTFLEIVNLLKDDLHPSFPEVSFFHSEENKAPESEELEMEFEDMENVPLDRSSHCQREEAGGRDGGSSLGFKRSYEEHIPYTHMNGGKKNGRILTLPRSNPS", "experiment": "Kinase panel", "type": "biochemical"}, "CDK6/cyclinD3(h)": {"target": "T6, CDK6/cyclinD3(h) (Homo sapiens, UniProt Q00534)", "T6 construct": "purchased Millipore KinaseProfiler", "T6 sequence (Q00534 whole entry)": "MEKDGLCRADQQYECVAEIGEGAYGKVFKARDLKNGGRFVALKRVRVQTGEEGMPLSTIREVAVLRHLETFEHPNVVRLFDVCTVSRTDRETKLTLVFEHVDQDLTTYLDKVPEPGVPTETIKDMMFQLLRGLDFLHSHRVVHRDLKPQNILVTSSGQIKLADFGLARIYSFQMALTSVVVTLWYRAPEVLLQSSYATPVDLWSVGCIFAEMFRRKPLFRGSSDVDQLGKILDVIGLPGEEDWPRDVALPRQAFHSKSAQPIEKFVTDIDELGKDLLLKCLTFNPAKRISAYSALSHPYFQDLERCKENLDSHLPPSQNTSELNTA", "T6 sequence (P30281 whole entry partner)": "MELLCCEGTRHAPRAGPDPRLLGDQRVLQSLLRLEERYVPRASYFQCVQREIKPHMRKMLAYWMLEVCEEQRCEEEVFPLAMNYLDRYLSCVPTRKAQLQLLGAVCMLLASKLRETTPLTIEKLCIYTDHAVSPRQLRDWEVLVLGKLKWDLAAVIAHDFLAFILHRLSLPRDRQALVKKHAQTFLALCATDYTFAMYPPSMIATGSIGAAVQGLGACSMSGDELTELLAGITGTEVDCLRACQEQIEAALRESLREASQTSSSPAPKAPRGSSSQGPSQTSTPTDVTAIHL", "experiment": "Kinase panel", "type": "biochemical"}, "BTK(h)": {"target": "T7, BTK(h) (Homo sapiens, UniProt Q06187)", "T7 construct": "purchased Millipore KinaseProfiler", "T7 sequence (Q06187 whole entry)": "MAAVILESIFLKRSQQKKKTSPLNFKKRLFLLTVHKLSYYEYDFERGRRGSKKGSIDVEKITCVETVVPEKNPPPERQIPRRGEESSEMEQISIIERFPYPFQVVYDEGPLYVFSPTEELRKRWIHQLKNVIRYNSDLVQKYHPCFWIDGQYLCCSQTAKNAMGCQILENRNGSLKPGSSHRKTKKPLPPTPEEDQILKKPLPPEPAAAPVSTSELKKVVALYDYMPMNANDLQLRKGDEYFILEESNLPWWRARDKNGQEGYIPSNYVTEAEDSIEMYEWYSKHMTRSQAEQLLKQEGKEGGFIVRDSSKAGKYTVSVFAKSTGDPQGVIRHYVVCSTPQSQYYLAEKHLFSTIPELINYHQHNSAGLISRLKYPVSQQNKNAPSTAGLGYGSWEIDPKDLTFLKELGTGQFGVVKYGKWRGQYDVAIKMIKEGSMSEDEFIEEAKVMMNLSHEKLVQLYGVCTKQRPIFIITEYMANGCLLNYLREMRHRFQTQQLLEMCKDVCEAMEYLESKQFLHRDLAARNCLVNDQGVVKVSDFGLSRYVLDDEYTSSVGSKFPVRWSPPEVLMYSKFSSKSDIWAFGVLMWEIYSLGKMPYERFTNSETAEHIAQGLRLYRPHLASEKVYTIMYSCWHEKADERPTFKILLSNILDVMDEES", "experiment": "Kinase panel", "type": "biochemical"}}, "note": "Read-outs that look alike come from different tables or passages of the source."}
{"smiles": "Cn1ncc(Cl)c1-c1cc(C(=O)N[C@H](CN)Cc2cccc(F)c2)sc1Cl", "note": "[GSK2110183]", "values": [{"measurement": "inhibition at 0.5 µM", "setting": "EphB2(h)", "result": -8, "unit": "%"}, {"measurement": "inhibition at 10 µM", "setting": "EphB2(h)", "result": 4, "unit": "%"}, {"measurement": "inhibition at 0.5 µM", "setting": "CHK1(h)", "result": 13, "unit": "%"}, {"measurement": "inhibition at 10 µM", "setting": "CHK1(h)", "result": 34, "unit": "%"}, {"measurement": "IC50", "setting": "PKCη", "result": 210, "unit": "nM"}, {"measurement": "inhibition at 0.5 µM", "setting": "PAK6(h)", "result": 13, "unit": "%"}, {"measurement": "inhibition at 10 µM", "setting": "PAK6(h)", "result": 73, "unit": "%"}, {"measurement": "inhibition at 0.5 µM", "setting": "Abl (M351T)(h)", "result": 0, "unit": "%"}, {"measurement": "inhibition at 10 µM", "setting": "Abl (M351T)(h)", "result": 24, "unit": "%"}, {"measurement": "AKT substrate phosphorylation levels (GSK3β, PRAS40, FOXO, Caspase 9)", "setting": "[1]", "result": "concentration-dependent effect"}, {"measurement": "AKT substrate phosphorylation levels (GSK3β, PRAS40, FOXO, Caspase 9)", "setting": "[2]", "result": "concentration-dependent effect"}, {"measurement": "inhibition at 0.5 µM", "setting": "IR(h)", "result": 35, "unit": "%"}, {"measurement": "inhibition at 10 µM", "setting": "IR(h)", "result": 32, "unit": "%"}, {"measurement": "inhibition at 0.5 µM", "setting": "CDK6/cyclinD3(h)", "result": 0, "unit": "%"}, {"measurement": "inhibition at 10 µM", "setting": "CDK6/cyclinD3(h)", "result": 5, "unit": "%"}, {"measurement": "inhibition at 0.5 µM", "setting": "BTK(h)", "result": 2, "unit": "%"}, {"measurement": "inhibition at 10 µM", "setting": "BTK(h)", "result": 4, "unit": "%"}]}
{"smiles": "Cn1ncc(Cl)c1-c1cc(C(=O)N[C@H](CN)Cc2ccc(F)c(F)c2)oc1Cl", "note": "[GSK2141795]", "values": [{"measurement": "inhibition at 0.5 µM", "setting": "EphB2(h); 0.5 µM, read-out: % Inhibition", "result": -8, "unit": "%"}, {"measurement": "inhibition at 10 µM", "setting": "EphB2(h); 10 µM, read-out: % Inhibition", "result": 0, "unit": "%"}, {"measurement": "inhibition at 0.5 µM", "setting": "CHK1(h); 0.5 µM, read-out: % Inhibition", "result": -9, "unit": "%"}, {"measurement": "inhibition at 10 µM", "setting": "CHK1(h); 10 µM, read-out: % Inhibition", "result": 21, "unit": "%"}, {"measurement": "IC50", "setting": "PKCη", "result": 49, "unit": "nM"}, {"measurement": "inhibition at 0.5 µM", "setting": "PAK6(h); 0.5 µM, read-out: % Inhibition", "result": 11, "unit": "%"}, {"measurement": "inhibition at 10 µM", "setting": "PAK6(h); 10 µM, read-out: % Inhibition", "result": 64, "unit": "%"}, {"measurement": "inhibition at 0.5 µM", "setting": "Abl (M351T)(h); 0.5 µM, read-out: % Inhibition", "result": -7, "unit": "%"}, {"measurement": "inhibition at 10 µM", "setting": "Abl (M351T)(h); 10 µM, read-out: % Inhibition", "result": -3, "unit": "%"}, {"measurement": "AKT substrate phosphorylation levels (GSK3β, PRAS40, FOXO, Caspase 9)", "setting": "[1]", "result": "concentration-dependent effect"}, {"measurement": "AKT substrate phosphorylation levels (GSK3β, PRAS40, FOXO, Caspase 9)", "setting": "[2]", "result": "concentration-dependent effect"}, {"measurement": "inhibition at 0.5 µM", "setting": "IR(h); 0.5 µM, read-out: % Inhibition", "result": -8, "unit": "%"}, {"measurement": "inhibition at 10 µM", "setting": "IR(h); 10 µM, read-out: % Inhibition", "result": 41, "unit": "%"}, {"measurement": "inhibition at 0.5 µM", "setting": "CDK6/cyclinD3(h); 0.5 µM, read-out: % Inhibition", "result": -12, "unit": "%"}, {"measurement": "inhibition at 10 µM", "setting": "CDK6/cyclinD3(h); 10 µM, read-out: % Inhibition", "result": -12, "unit": "%"}, {"measurement": "inhibition at 0.5 µM", "setting": "BTK(h); 0.5 µM, read-out: % Inhibition", "result": 7, "unit": "%"}, {"measurement": "inhibition at 10 µM", "setting": "BTK(h); 10 µM, read-out: % Inhibition", "result": 6, "unit": "%"}]}
